Tested on: HaCaT cells
Test: Cellular viability of HaCaT cells by MTS colorimetric assay
Type: cell-based, human
Details: 24 hours
Description: The aim of this study was to evaluate in vitro the effect of GExtract NdT (obtained in Example 1) on the viability of the human keratinocyte cell line HaCaT. The evaluation was performed on cells exposed to GExtract NdT at a dilution of 2% in complete medium for 24 hours. The cellular viability was measured by MTS colorimetric essay through the absorbance measurement obtained from the conversion of a bioreduced tertazolium compound from viable cells into a coloured formazan soluble in the culture medium. The HaCaT cells were exposed for 24 hours to 2% of GExtract NdT of and Triton-X 100 and subsequently the viability was evaluated by MTS assay.

TRITON-X 100
Concentration from which the surfactant lysed all the cells: ≥ 0.01%
% CTR (cell viability, percentage normalized on the control group) (0.005% (v/v)): 52.098%
% CTR (cell viability, percentage normalized on the control group) (0.01% (v/v)): 0%
% CTR (cell viability, percentage normalized on the control group) (0.05% (v/v)): 0%
% CTR (cell viability, percentage normalized on the control group) (0.5% (v/v)): 0%

— patent publication US20250134799A1, “COMPOSITION CONTAINING NERO DI TROIA POMACE EXTRACT” (PLANBIO COSMETICS SRL, priority 2022, published 2025)
